We go through five compounds from PMC5496928, “Data driven polypharmacological drug design for lung cancer: analyses for targeting ALK, MET, and EGFR” (Journal of Cheminformatics, 2017).

Test [1] has as its system EGFR (L858R) and EGFR (L858R, T790M). The test is described as follows: scanKINETIC conclusions stated in text for both EGFR forms together. Conditions: for Association behaviour: comparing 1-h and 6-h incubation times; for Covalent binding to EGFR (both forms): interpretation of kinetics data; for Dissociation behaviour: 30-fold dilution following one hour of incubation; for Retention of compound after dilution: relative to bound values at 1 h. In kind it is binding. The source says: (§1) Tests of the compounds confirm suitability for ALK + MET + EGFR polypharmacology optimization (Table 1). […] For compound 1, ^3 with the acrylamide function at the site corresponding to that of WZ4002, both ALK and MET binding were inhibited more weakly compared to EGFR binding. […] The sensitivity to the assay conditions seen for both forms of EGFR and uniformly tighter binding under the new assay conditions may indicate tighter binding for ALK and MET under these altered assay conditions as well.
(§2) The kinetics testing results (Table 1) support several further important conclusions. […] The simultaneous appearance of slow association and slow dissociation complicates the interpretation of the results, but the percentage values shown in Table 1 show the apparent residual amounts of compounds relative to bound values at 1 h. These values indicate retention of roughly half of compound 1, and nearly all of compound 2a, after dilution. […] The similarity of compound 2a to 2b and 1 with respect to structure and binding strength, differing only in the linker to the acrylamide binding group, is further evidence that that it is the covalent binding property that determines the difference in binding kinetics, rather than e.g. a slow conformational change of the target enzymes.
(§3) The three tricyclic compounds (1, 2a and 2b) were purchased from the company ARTTSynthesis (www.arttsynthesis.com). Tests for binding properties were performed by the company DiscoverX (www.discoverx.com), using a concentration of 1 µM against ALK, MET and EGFR variants L858R and L858R_T790M) using KdELECT and scanKINETIC from DiscoverX [124, 125].

Test [2] addresses T1, ALK (Homo sapiens, UniProt Q9UM73).
T1 construct: purchased DiscoverX
The experiment in a line: KdELECT binding assay (DiscoverX). To be noted: read-out: Kd study, ALK.
Source text: as §1, §3

The target of test [3] is T2, EGFR (L858R, T790M) (Homo sapiens, UniProt P00533, L858R/T790M).
T2 construct: purchased DiscoverX
The test is described as follows: KdELECT binding assay (DiscoverX). To be noted: read-out: Kd study, EGFR LR+TM.
Source text: as §1, §3

The target in test [4] is T3, EGFR (L858R) (Homo sapiens, UniProt P00533, L858R).
T3 construct: purchased DiscoverX
The test is described as follows: KdELECT binding assay (DiscoverX). To be noted: read-out: Kd study, EGFR LR.
Source text: as §1, §3

For test [5], the target named is T4, MET (Homo sapiens, UniProt P08581).
T4 construct: purchased DiscoverX
T4 sequence (P08581 25-1390): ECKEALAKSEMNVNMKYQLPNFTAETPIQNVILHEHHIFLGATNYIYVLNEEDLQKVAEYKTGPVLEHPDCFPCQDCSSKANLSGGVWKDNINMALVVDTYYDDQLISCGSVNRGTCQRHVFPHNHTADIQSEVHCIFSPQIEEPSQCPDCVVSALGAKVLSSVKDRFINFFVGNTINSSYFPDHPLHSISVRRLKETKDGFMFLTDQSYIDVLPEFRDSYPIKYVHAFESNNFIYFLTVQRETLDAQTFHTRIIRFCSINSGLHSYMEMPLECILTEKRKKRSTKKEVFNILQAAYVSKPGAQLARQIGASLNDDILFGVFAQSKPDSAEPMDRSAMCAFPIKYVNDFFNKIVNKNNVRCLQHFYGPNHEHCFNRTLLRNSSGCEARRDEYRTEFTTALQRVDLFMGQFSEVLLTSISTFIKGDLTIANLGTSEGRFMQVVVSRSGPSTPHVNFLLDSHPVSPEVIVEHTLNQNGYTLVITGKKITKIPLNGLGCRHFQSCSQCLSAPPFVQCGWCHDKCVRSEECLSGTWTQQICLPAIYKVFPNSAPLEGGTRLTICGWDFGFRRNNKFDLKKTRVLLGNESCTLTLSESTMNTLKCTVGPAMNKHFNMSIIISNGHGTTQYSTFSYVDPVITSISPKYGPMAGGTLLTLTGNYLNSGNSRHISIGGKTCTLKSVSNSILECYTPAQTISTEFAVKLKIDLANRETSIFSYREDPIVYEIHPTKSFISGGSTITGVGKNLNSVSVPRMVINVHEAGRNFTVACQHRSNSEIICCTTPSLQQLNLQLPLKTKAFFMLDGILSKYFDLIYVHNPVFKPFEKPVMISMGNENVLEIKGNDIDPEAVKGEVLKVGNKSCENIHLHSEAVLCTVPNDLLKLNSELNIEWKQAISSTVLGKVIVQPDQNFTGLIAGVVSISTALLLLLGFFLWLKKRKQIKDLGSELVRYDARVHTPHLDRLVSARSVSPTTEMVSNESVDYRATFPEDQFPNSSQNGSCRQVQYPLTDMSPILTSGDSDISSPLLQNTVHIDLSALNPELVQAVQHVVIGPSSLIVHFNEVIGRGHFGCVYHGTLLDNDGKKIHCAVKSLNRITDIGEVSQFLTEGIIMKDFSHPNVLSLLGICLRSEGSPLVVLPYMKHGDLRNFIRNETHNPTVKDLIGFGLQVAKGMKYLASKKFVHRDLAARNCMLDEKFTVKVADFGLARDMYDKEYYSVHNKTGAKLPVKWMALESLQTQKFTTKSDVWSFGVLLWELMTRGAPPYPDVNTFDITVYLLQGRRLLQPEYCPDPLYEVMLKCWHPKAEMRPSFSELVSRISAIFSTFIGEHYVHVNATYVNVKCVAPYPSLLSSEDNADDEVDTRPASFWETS
The experiment in a line: KdELECT binding assay (DiscoverX). Conditions: read-out: Kd study, MET.
Source text: as §1, §3

For test [6], the target named is T2, EGFR (L858R, T790M). The experiment in a line: scanKINETIC binding kinetics assay (DiscoverX). Conditions: for Percentage after 30× dilution, EGFR LR+TM: apparent residual compound relative to bound value at 1 h, significantly higher than 3% indicates slow dissociation; for Percentage comparing 1 or 6 h incubation, EGFR LR+TM: percentages significantly lower than 100% indicate slow association.
Source text: as §1, §2, §3

Test [7] deals with T3, EGFR (L858R). The experiment in a line: scanKINETIC binding kinetics assay (DiscoverX). To be noted: for Percentage after 30× dilution, EGFR LR: apparent residual compound relative to bound value at 1 h, significantly higher than 3% indicates slow dissociation; for Percentage comparing 1 or 6 h incubation, EGFR LR: percentages significantly lower than 100% indicate slow association.
Source text: as §1, §2, §3

In another test the test system is MET mutant Y1230C. The arrangement: method as in PMID 19459657. Conditions: cellular assay; cited from earlier work.
The target in test [8] is T1, ALK. The arrangement: method as in PMID 20033049. Conditions: cited from earlier work.
The target in test [9] is T4, MET. Conditions: cited from earlier work.
In the next test the test system is EGFR. Details: method as in PMID 20033049. Conditions: cited from earlier work.
Setting [10] is: Apparent Kd, EGFR LR+TM (30× dilution), 30× dilution after 1 h incubation.
Setting [11] is: Kd, EGFR LR+TM (1 h), scanKINETIC, 1 h incubation.
Where [12] appears, read: Kd, EGFR LR+TM (6 h), scanKINETIC, 6 h incubation.
Where [13] appears, read: Apparent Kd, EGFR LR (30× dilution), 30× dilution after 1 h incubation.
Where [14] appears, read: Kd, EGFR LR (1 h), scanKINETIC, 1 h incubation.
The mark [15] stands for this setting: Kd, EGFR LR (6 h), scanKINETIC, 6 h incubation.

Molecules are shown by their SMILES.

T1 sequence (Q9UM73 19-1620): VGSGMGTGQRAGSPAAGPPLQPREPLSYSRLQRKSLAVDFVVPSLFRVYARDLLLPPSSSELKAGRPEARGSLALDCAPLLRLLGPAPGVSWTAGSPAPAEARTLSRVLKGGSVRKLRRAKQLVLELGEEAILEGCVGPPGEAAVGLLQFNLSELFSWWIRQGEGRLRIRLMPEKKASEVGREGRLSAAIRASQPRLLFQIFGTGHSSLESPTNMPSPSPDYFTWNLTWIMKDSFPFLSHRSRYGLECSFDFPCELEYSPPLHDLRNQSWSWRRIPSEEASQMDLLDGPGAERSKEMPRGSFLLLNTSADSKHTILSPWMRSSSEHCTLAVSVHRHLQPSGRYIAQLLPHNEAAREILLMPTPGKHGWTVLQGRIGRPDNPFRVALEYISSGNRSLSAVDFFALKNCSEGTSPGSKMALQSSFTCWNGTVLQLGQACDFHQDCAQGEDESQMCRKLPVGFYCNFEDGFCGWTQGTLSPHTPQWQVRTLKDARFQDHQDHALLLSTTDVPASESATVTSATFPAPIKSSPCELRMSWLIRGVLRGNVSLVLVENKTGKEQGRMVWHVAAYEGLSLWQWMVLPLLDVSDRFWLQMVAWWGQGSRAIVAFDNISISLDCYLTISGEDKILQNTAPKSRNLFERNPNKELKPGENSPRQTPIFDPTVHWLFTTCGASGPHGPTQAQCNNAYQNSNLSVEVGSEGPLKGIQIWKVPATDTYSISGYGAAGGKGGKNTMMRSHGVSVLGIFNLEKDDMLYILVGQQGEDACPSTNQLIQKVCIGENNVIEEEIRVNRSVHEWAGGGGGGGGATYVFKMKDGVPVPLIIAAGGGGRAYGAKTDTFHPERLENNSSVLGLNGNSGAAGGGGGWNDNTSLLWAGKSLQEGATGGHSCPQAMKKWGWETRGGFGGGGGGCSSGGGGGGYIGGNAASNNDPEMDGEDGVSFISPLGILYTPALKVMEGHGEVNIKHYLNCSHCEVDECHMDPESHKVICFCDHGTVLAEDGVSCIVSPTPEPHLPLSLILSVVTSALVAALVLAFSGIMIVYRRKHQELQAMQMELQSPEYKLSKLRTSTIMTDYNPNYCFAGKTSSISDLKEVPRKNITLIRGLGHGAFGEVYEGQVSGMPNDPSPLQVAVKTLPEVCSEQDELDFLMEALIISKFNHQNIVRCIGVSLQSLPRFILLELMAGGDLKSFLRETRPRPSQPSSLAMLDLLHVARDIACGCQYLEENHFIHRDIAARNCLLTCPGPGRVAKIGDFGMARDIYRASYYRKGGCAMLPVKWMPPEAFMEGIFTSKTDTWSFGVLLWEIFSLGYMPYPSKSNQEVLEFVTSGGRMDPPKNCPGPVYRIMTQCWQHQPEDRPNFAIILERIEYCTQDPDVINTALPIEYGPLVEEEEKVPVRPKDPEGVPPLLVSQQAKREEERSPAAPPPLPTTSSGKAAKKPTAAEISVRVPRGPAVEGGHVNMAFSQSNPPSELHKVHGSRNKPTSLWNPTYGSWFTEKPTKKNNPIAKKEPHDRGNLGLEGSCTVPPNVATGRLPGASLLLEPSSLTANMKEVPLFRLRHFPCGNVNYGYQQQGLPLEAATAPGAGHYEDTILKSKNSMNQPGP

As for `C=CC(=O)NCc1cccc(Nc2ncc(Cl)c(Nc3ccccc3)n2)c1` [compound 2b, N‐[(3‐{[5‐chloro‐4‐(phenylamino)pyrimidin‐2‐yl]amino}phenyl)methyl]prop‐2‐enamide], the “Time within which binding is complete” value in test [1] is not above 1 h. Also, the “Time within which dissociation is complete” value in [1] (after 30-fold dilution) is reported as not above 5 h. For the same compound, the Association behaviour entry in test [1] is listed as “fast association”. In test [1], the “Covalent binding to EGFR (both forms)” value is reported as “no evidence of covalent binding”. Further, the Kd at ALK [2] is 390 nM; on EGFR (L858R, T790M) [3], 270 nM; at EGFR (L858R) [4], 780 nM; on MET [5], 330 nM; at EGFR (L858R, T790M) [6] (setting [10]) it was 4100 nM; on EGFR (L858R, T790M) [6] (setting [11]), 58 nM. Also, the Kd at EGFR (L858R, T790M) [6] (setting [12]) was 100 nM; on EGFR (L858R) [7] (setting [13]) it was 2900 nM; on EGFR (L858R) [7] (setting [14]), 170 nM; at EGFR (L858R) [7] (setting [15]), 110 nM. Also, the “Percentage after 30× dilution, EGFR LR+TM” value on EGFR (L858R, T790M) [6] turned out to be 1.4%. For the same compound, on EGFR (L858R, T790M) [6], the “Percentage comparing 1 or 6 h incubation, EGFR LR+TM” value was determined as 170%. Further, the “Percentage after 30× dilution, EGFR LR” value at EGFR (L858R) [7] is reported as 5.9%. Besides, at EGFR (L858R) [7], the “Percentage comparing 1 or 6 h incubation, EGFR LR” value is on record as 65%.

Consider `C=CC(=O)Nc1cccc(Nc2ncc(Cl)c(Nc3ccccc3)n2)c1` [compound 2a, N‐(3‐{[5‐chloro‐4‐(phenylamino)pyrimidin‐2‐yl]amino}phenyl)prop‐2‐enamide], for which, in test [1], the Dissociation behaviour entry is “slow dissociation behavior”. Further, the Association behaviour entry in test [1] was “relatively slow-binding”. In [1], the “Covalent binding to EGFR (both forms)” value was “able to bind covalently”. Further, the “Retention of compound after dilution” value in test [1] is recorded as “nearly all”. Further, the Kd on ALK [2] was 340 nM; on EGFR (L858R, T790M) [3], 110 nM; at EGFR (L858R) [4], 710 nM; on MET [5], 250 nM; at EGFR (L858R, T790M) [6] (setting [10]), 56 nM; at EGFR (L858R, T790M) [6] (setting [11]), 56 nM. Further, the Kd on EGFR (L858R, T790M) [6] (setting [12]) was 8 nM; at EGFR (L858R) [7] (setting [13]) it was 340 nM; at EGFR (L858R) [7] (setting [14]), 340 nM; at EGFR (L858R) [7] (setting [15]) it was 47 nM. Further, the “Percentage after 30× dilution, EGFR LR+TM” value on EGFR (L858R, T790M) [6] worked out at 100%. The “Percentage comparing 1 or 6 h incubation, EGFR LR+TM” value on EGFR (L858R, T790M) [6] came out at 14%. Moreover, the “Percentage after 30× dilution, EGFR LR” value on EGFR (L858R) [7] was 100%. The “Percentage comparing 1 or 6 h incubation, EGFR LR” value on EGFR (L858R) [7] worked out at 14%.

For the compound `C=CC(=O)Nc1cccc(Nc2nc(Nc3ccccc3)ncc2Cl)c1` [compound 1, N‐(3‐{[5‐chloro‐2‐(phenylamino)pyrimidin‐4‐yl]amino}phenyl)prop‐2‐enamide], in test [1], the Dissociation behaviour result is recorded as “slow dissociation behavior”. In [1], the Association behaviour entry is “relatively slow-binding”. Further, the “Retention of compound after dilution” value in [1] is “roughly half”. The Kd was 800 nM at ALK [2]; 110 nM at EGFR (L858R, T790M) [3]; 420 nM at EGFR (L858R) [4]; more than 1000 nM on MET [5]; 25 nM on EGFR (L858R, T790M) [6] (setting [11]); 3.2 nM on EGFR (L858R, T790M) [6] (setting [12]). Besides, the results for the Kd at EGFR (L858R) [7] (setting [14]) and on EGFR (L858R) [7] (setting [15]) were 57 nM and 5.7 nM, respectively. In addition, the “Percentage comparing 1 or 6 h incubation, EGFR LR+TM” value at EGFR (L858R, T790M) [6] is 13%. At EGFR (L858R) [7], the “Percentage comparing 1 or 6 h incubation, EGFR LR” value was 10%.

Take `C[C@@H](Oc1cc(-c2cnn(C3CCNCC3)c2)cnc1N)c1c(Cl)ccc(F)c1Cl` [crizotinib]: the “Weakening of binding to MET mutant Y1230C” value in the test with MET mutant Y1230C is on record as 15 fold.

With `C=CC(=O)Nc1cccc(Oc2nc(Nc3ccc(N4CCN(C)CC4)cc3OC)ncc2Cl)c1` [WZ4002], the “Binding to ALK” value at ALK [8] was “known to bind”. For the same compound, on MET [9], the “Binding to MET” value is listed as “known to bind”. In addition, the “Covalent binding to EGFR” value in the test on EGFR was “known to bind covalently to EGFR”.
